The values below come from patent US8258114B2, “Modulation of glucose-6-phosphatase translocase expression” (Isis Pharmaceuticals, Inc., priority 2004, dated 2012).

The subject of one series is db/db mice. Nature of the series: Fed and fasted plasma glucose in db/db mice (Example 10). In kind it is in vivo, mouse. The conditions noted are these: 25 mg/kg s.c. twice weekly; for fasted plasma glucose: week 3, overnight fast, saline 343. As for the experimental part:
Seven-week old male C57B1/6J-Lepr db/db mice (Jackson Laboratory, Bar Harbor, Me.) were fed a diet with a fat content of about 14% and were subcutaneously injected with one or more of the oligomeric compounds of the invention or a control compound at a dose of 25 mg/kg two times per week. Glucose-6-phosphatase translocase antisense oligonucleotides used were ISIS 148985 (SEQ ID NO: 118) and ISIS 149008 (SEQ ID NO: 141). ISIS 116847 (SEQ ID NO: 143), targeted to mouse PTEN, was used as a positive control. The scrambled control oligonucleotide ISIS 141923 ([…], incorporated herein as SEQ ID NO: 144) served as a negative control along with saline-injected animals. ISIS 141923 and ISIS 116847 are chimeric oligonucleotides (“gapmers”) 20 nucleotides in length, composed of a central “gap” region consisting of 10 2′-deoxynucleotides, which is flanked on both sides (5′ and 3′) by five-nucleotide “wings”. The wings are composed of 2′-O-(2-methoxyethyl) nucleotides, also known as 2′-MOE nucleotides. The internucleoside (backbone) linkages are phosphorothioate throughout the oligonucleotide. All cytidine residues are 5-methylcytidines.
The effects of target inhibition on glucose metabolism were evaluated in the db/db mice treated with the oligomeric compounds of the invention. For seven animals per treatment group, plasma glucose (fed) was measured prior to the start of the treatment (week 0) and during weeks 2 and 4 of treatment. Fasted glucose measurements were made during week three, after animals were fasted overnight (about 15 hours). Data are expressed as the averages per treatment group.

Series [1] has as its system glucose-6-phosphatase translocase mRNA. Kind of series: Target mRNA reduction in liver of ob/ob mice. The format is in vivo, mouse. The conditions noted are these: 25 mg/kg s.c. twice weekly, eight doses. On the procedure:
Seven-week old male C57B1/6J-Lep ob/ob mice (Jackson Laboratory, Bar Harbor, Me.) were fed a diet with a fat content of about 22% and were subcutaneously injected with oligonucleotides at a dose of 25 mg/kg two times per week. A total of eight doses were administered. Glucose-6-phosphatase translocase antisense oligonucleotides used were ISIS 148985 (SEQ ID NO: 118) and ISIS 149008 (SEQ ID NO: 141). […]; incorporated herein as SEQ ID NO: 143), targeted to mouse PTEN, was used as a positive control. Saline-injected animals served as negative controls. […] Glucose-6-phosphatase translocase mRNA levels in ob/ob mouse livers were measured at the end of the study using RIBOGREENTM RNA quantification reagent (Molecular Probes, Inc. Eugene, Oreg.) as taught in previous examples above.

Series [2] relates to ob/ob mice. Kind of series: Oral glucose tolerance test in ob/ob mice (Table 6). The format is in vivo, mouse. The conditions noted are these: 25 mg/kg twice weekly; for plasma glucose, OGTT: after 6th dose. On the procedure: The mice described in Example 7 were evaluated for performance on glucose tolerance tests after the 6th dose of saline or antisense oligonucleotides. Through measurement of glucose levels following the administration of a bolus of glucose, tolerance tests assess the physiological response to a glucose challenge.
Oral glucose tolerance tests (OGTT) were performed during the third week of treatment with saline, ISIS 116847 (targeted to PTEN, SEQ ID NO: 143), ISIS 148985 (SEQ ID NO: 118), or ISIS 149008 (SEQ ID NO: 141). To provide a baseline glucose level, fasted blood glucose levels were measured before the challenge. Glucose was administered by oral gavage via an 18 g gavage needle at a dose of 1 g/kg. Plasma glucose levels were measured for 30, 60, 90 and 120 minutes post-challenge using an Ascencia Glucometer Elite XL (Bayer, Tarrytown, N.Y.).
The results are presented in Table 6 as the average result (plasma glucose in mg/dL) from each treatment group (n=7). Saline-treated mice served as the control to which glucose levels were compared.

In series [3] the test system is ob/ob mice. Kind of series: Fed and fasted plasma glucose in ob/ob mice. In kind it is in vivo, mouse. The conditions noted are these: 25 mg/kg s.c. twice weekly; for fasted plasma glucose: week 3, overnight fast, saline 297. On the procedure:
(§1) Seven-week old male C57B1/6J-Lep ob/ob mice (Jackson Laboratory, Bar Harbor, Me.) were fed a diet with a fat content of about 22% and were subcutaneously injected with oligonucleotides at a dose of 25 mg/kg two times per week. A total of eight doses were administered. Glucose-6-phosphatase translocase antisense oligonucleotides used were ISIS 148985 (SEQ ID NO: 118) and ISIS 149008 (SEQ ID NO: 141). ISIS 116847 ([…]; incorporated herein as SEQ ID NO: 143), targeted to mouse PTEN, was used as a positive control. Saline-injected animals served as negative controls. Animals were sacrificed 48 hours after the last dose of oligonucleotide was administered, and liver triglycerides, liver glycogen, and target reduction in liver were measured.
The effects of target inhibition on glucose metabolism were evaluated in the ob/ob mice treated as described above. Routine clinical analyzer instruments (Olympus Clinical Analyzer, Melville, N.Y.) were used to measure plasma glucose. Plasma glucose was measured prior to antisense oligonucleotide treatment (week 0) and during the second and fourth week of treatment. Fasted glucose measurements were made during week 3 after an overnight (about 14 hours) fast. Data are presented as the average from seven animals per treatment group.

For series [4] the following is noted: mouse, in vivo, sc, 25 mg/kg. As for the experimental part:
as §1
Hepatic steatosis, or buildup of lipids in the liver, was assessed by measuring the liver triglyceride content. Tissue triglycerides were measured with a Triglyceride GPO assay from Roche Diagnostics (Indianapolis, Ind.). Data are presented as averages from 5 animals per treatment group. Triglycerides were approximately 178 mg/g for saline treated mice, 162 mg/g for ISIS 149008-treated mice, 168 mg/g for ISIS 148985-treated mice, and 187 mg/g for ISIS 116847 (PTEN)-treated mice. Thus liver triglycerides were not increased in antisense-treated animals.
Tissue glycogen was measured using the Glucose Trinder Reagent (Sigma-Aldrich, St. Louis, Mo.). Glycogen levels of mice treated with saline alone were approximately 31 mg/g of tissue. Levels in mice treated with the positive control antisense compound ISIS 116847, targeted to PTEN, had levels of approximately 25 mg/g. Mice treated with ISIS 149008 or 148985, the antisense inhibitors of glucose-6-phosphatase translocase, had glycogen levels of approximately 31 mg/g and 30 mg/g, respectively.

Where [5] appears, read: 0 min post-glucose challenge (fasted).
The mark [6] stands for this setting: week 0 (prior to treatment), saline 339.

Consider “CCTTCCCTGAAGGTTCCTCC (chemistry not given here) [ISIS 141923, scrambled control oligonucleotide, negative control, reference compound]”, for which the fed plasma glucose result in the series with db/db mice (week 0, saline 270) is “approximately 272 mg/dL”; in the series with db/db mice (week 2, saline 534), about 538 mg/dL; in the series on db/db mice (week 4, saline 627), about 563 mg/dL. Also, the fasted plasma glucose entry in the series on db/db mice was “approximately 287 mg/dL”.

For “CTGCTAGCCTCTGGATTTGA (chemistry not given here) [ISIS 116847, positive control oligonucleotide targeted to mouse PTEN, reference compound]”, the “Glucose-6-phosphatase translocase mRNA levels in liver, reduction compared to saline” value in series [1] is reported as “approximately 36%”. For the same sequence, the “plasma glucose, OGTT” value in the series with ob/ob mice [2] (setting [5]) amounted to 286 mg/dL; with ob/ob mice [2] (30 min post-glucose challenge), 290 mg/dL; with ob/ob mice [2] (60 min post-glucose challenge), 238 mg/dL; with ob/ob mice [2] (90 min post-glucose challenge) it was 229 mg/dL; with ob/ob mice [2] (120 min post-glucose challenge), 194 mg/dL. For the same sequence, the fed plasma glucose result is on record as “approximately 339 mg/dL” with ob/ob mice [3] (setting [6]); about 230 mg/dL in the series with ob/ob mice [3] (week 2, saline 401); about 188 mg/dL in the series on ob/ob mice [3] (week 4, saline 372); “approximately 267 mg/dL” in the series on db/db mice (week 0, saline 270); about 360 mg/dL in the series on db/db mice (week 2, saline 534); about 334 mg/dL in the series on db/db mice (week 4, saline 627). Further, the values for the fasted plasma glucose result in the series with ob/ob mice [3] and in the series with db/db mice were “approximately 286 mg/dL” and “approximately 241 mg/dL”, respectively. This sequence came in with a Liver Triglycerides in series [4] of about 187 mg/g. In addition, the Liver glycogen levels entry in series [4] was “approximately 25 mg/g”.

“GCTCCATAGCGAGGACTCGA (chemistry not given here) [ISIS 148985]”: in series [1], the “Glucose-6-phosphatase translocase mRNA levels in liver, reduction compared to saline” value is reported as “approximately 52%”. The “plasma glucose, OGTT” value with ob/ob mice [2] (setting [5]) worked out at 293 mg/dL; in the series on ob/ob mice [2] (30 min post-glucose challenge) it was 489 mg/dL; in the series on ob/ob mice [2] (60 min post-glucose challenge), 433 mg/dL; with ob/ob mice [2] (90 min post-glucose challenge), 331 mg/dL; in the series with ob/ob mice [2] (120 min post-glucose challenge) it was 305 mg/dL. Also, the fed plasma glucose result is reported as “approximately 348 mg/dL” in the series on ob/ob mice [3] (setting [6]); about 315 mg/dL with ob/ob mice [3] (week 2, saline 401); about 241 mg/dL in the series on ob/ob mice [3] (week 4, saline 372); “approximately 267 mg/dL” in the series with db/db mice (week 0, saline 270); about 512 mg/dL in the series with db/db mice (week 2, saline 534); about 552 mg/dL in the series on db/db mice (week 4, saline 627). For the same sequence, the values for the fasted plasma glucose result in the series with ob/ob mice [3] and with db/db mice were “approximately 293 mg/dL” and “approximately 288 mg/dL”, respectively. Also, the Liver Triglycerides in series [4] was about 168 mg/g. In addition, the Liver glycogen levels in series [4] is given as about 30 mg/g.

On to “TATACAAGTCGGTTTGCCCT (chemistry not given here) [ISIS 149008]”, for which the “Glucose-6-phosphatase translocase mRNA levels in liver, reduction compared to saline” value in series [1] is on record as “approximately 87%”. Further, the “plasma glucose, OGTT” value was determined as 237 mg/dL in the series on ob/ob mice [2] (setting [5]); 372 mg/dL in the series with ob/ob mice [2] (30 min post-glucose challenge); 276 mg/dL in the series with ob/ob mice [2] (60 min post-glucose challenge); 238 mg/dL in the series with ob/ob mice [2] (90 min post-glucose challenge); 214 mg/dL in the series with ob/ob mice [2] (120 min post-glucose challenge). Besides, the “glucose tolerance (in words)” value in the series with ob/ob mice [2] (OGTT) is listed as “improved glucose tolerance”. Also, the fed plasma glucose entry is “approximately 344 mg/dL” in the series with ob/ob mice [3] (setting [6]); about 249 mg/dL in the series on ob/ob mice [3] (week 2, saline 401); about 153 mg/dL in the series on ob/ob mice [3] (week 4, saline 372); “approximately 272 mg/dL” with db/db mice (week 0, saline 270); about 390 mg/dL with db/db mice (week 2, saline 534); about 347 mg/dL in the series with db/db mice (week 4, saline 627). Besides, the fasted plasma glucose result with ob/ob mice [3] is recorded as “approximately 237 mg/dL”; in the series with db/db mice it was “approximately 241 mg/dL”. Further, in series [4], the Liver Triglycerides is about 162 mg/g. In series [4], the Liver glycogen levels result was “approximately 31 mg/g”.
